# Source: patent US20230365559A1, “NOVEL AMINOPYRIDINES AND THEIR USE IN TREATING CANCER” (priority 2020, published 2023)
# Values joined by “and” are separate entries in the source; they are usually repeats but may differ in a detail not shown here. Equal values may be shown once. “Also recorded” adds a separate entry of the source.
# What was measured:
# ATM = ATM (Homo sapiens, UniProt Q13315); assay: ATM Human PIKK Kinase Enzymatic ELISA/EIA Assay, KinaseProfiler (Eurofins Discovery); assay type: biochemical; details: for remaining activity at 1 µM: read-out: ATM, Percent of control at 1 μM; for IC50: KinaseProfiler, Km ATP, Table 15, read-out: Inhibition of PIKK kinase activity ATM
# ATM, sequence (Q13315 whole entry): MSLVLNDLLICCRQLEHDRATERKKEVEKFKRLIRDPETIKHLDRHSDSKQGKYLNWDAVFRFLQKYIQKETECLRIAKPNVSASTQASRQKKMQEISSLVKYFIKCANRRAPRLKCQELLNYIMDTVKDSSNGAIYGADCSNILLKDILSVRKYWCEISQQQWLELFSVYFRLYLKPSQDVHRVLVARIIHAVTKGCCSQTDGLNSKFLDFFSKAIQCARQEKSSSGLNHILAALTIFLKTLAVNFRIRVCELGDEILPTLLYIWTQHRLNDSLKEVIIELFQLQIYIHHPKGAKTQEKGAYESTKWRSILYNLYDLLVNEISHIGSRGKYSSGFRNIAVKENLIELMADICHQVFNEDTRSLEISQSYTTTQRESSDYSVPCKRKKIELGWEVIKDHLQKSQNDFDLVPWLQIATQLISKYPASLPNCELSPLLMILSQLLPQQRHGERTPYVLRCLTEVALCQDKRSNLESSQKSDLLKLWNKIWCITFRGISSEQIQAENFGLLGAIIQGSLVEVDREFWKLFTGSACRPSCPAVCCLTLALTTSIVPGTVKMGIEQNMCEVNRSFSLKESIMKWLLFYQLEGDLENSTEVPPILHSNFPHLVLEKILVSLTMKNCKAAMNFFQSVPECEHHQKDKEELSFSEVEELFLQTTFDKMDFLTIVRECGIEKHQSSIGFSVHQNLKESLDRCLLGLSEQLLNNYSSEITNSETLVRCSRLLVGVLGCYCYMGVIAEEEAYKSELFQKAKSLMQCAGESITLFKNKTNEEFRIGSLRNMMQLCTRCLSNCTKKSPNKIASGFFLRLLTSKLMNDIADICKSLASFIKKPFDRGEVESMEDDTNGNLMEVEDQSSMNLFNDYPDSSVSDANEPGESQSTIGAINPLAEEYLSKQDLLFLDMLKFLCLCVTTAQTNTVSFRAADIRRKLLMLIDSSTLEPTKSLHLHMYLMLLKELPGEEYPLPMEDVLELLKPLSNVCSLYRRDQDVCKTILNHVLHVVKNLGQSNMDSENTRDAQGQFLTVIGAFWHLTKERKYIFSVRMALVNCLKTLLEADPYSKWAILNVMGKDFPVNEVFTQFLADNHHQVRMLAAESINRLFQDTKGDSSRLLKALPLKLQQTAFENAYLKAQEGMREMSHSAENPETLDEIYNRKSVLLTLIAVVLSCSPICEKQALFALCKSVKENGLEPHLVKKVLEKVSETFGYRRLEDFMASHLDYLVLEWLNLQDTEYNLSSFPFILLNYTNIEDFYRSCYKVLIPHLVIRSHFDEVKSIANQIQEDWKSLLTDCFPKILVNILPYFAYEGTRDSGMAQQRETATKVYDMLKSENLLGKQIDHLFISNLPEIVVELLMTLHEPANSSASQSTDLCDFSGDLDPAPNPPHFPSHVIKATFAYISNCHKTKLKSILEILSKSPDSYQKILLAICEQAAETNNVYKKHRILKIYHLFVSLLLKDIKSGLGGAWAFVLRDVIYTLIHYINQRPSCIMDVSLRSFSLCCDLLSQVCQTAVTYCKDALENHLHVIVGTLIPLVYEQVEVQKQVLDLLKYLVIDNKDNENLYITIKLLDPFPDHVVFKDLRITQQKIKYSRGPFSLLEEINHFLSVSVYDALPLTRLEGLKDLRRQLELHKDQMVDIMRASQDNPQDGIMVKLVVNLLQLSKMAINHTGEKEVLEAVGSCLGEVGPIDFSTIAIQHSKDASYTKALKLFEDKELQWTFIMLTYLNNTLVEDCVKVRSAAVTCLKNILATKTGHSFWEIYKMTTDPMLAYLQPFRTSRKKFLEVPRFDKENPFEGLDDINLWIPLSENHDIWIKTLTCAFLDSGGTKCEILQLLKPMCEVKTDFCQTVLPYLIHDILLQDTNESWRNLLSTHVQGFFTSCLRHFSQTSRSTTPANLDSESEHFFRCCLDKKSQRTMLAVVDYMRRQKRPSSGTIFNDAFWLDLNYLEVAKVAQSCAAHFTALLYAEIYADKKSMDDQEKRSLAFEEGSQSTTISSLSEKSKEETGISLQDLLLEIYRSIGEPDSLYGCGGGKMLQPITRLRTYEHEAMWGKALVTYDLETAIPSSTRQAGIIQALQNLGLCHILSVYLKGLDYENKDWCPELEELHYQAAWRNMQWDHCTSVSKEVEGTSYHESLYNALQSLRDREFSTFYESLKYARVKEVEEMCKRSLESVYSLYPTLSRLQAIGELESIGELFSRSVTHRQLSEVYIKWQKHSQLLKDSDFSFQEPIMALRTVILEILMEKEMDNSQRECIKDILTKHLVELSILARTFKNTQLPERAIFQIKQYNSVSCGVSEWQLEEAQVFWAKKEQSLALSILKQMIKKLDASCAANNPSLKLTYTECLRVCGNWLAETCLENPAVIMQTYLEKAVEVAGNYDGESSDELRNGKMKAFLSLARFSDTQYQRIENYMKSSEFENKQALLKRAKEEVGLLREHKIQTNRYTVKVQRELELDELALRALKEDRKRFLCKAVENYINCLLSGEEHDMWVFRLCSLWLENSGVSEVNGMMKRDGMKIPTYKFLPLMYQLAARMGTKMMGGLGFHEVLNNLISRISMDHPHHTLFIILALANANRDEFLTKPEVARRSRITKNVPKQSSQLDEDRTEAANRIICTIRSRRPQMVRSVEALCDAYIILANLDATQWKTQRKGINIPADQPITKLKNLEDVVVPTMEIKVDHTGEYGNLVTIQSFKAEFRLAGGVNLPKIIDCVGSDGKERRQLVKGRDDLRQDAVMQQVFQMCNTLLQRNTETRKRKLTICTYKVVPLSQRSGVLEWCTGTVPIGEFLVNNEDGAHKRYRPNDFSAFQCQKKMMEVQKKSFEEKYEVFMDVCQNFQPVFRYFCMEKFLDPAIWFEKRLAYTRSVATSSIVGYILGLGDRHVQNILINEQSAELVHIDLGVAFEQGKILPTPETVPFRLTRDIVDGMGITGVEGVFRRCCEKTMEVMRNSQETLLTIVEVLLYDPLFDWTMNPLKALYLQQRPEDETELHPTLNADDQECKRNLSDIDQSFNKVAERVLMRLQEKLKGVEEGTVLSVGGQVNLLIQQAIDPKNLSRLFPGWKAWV
# HAP1/PRKDC−/− cells = assay: Radiosensitisation of DNA-PK null HAP1/PRKDC−/− cells, regrowth assay; assay type: cell-based, human; details: for IC50: Homo sapiens, HAP1; for radiosensitisation / differential growth inhibition of DNA-PK null HAP1 line: 3 Gy, HAP1/PRKDC−/−
# human PI3Kα (p110α/p85α) = human PI3Kα (p110α/p85α) (Homo sapiens, UniProt P42336); assay: Inhibition of PI3Kα kinase activity, ADP-Glo Assay (Reaction Biology); assay type: biochemical; details: 10 μM ATP; mean of two replicates; Table 12; read-out: Inhibition of kinase activity (as IC50) PICK
# human PI3Kα (p110α/p85α), sequence (P42336 whole entry): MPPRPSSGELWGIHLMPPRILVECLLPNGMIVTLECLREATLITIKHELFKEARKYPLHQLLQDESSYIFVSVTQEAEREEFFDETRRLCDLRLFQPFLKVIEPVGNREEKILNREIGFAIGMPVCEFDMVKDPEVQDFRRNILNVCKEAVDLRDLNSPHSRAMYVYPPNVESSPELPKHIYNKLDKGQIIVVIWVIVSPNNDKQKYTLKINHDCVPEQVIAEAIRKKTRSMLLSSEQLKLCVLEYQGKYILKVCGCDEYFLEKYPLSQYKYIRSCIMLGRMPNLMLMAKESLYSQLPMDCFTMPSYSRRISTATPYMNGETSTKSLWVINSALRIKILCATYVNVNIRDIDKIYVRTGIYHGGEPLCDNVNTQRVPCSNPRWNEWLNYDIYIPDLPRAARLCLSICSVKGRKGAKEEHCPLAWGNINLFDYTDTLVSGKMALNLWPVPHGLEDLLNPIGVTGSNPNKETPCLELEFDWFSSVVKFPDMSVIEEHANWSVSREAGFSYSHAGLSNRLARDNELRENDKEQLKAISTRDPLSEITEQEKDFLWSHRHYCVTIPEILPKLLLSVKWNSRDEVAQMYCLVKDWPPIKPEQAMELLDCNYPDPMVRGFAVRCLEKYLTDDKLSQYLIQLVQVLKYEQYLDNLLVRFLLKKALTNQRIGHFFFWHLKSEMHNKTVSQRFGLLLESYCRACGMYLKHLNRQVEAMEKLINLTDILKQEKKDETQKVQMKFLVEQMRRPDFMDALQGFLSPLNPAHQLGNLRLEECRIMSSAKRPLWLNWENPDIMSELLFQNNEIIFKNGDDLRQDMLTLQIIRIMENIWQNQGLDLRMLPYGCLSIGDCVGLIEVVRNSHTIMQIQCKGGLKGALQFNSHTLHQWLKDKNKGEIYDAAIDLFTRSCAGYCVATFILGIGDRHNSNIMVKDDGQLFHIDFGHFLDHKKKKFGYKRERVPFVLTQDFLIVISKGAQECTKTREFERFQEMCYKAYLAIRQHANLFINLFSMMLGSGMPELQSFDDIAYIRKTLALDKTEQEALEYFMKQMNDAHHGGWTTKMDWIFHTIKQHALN
# human PI3Kα (p110α/p85α), sequence (P27986 whole entry partner): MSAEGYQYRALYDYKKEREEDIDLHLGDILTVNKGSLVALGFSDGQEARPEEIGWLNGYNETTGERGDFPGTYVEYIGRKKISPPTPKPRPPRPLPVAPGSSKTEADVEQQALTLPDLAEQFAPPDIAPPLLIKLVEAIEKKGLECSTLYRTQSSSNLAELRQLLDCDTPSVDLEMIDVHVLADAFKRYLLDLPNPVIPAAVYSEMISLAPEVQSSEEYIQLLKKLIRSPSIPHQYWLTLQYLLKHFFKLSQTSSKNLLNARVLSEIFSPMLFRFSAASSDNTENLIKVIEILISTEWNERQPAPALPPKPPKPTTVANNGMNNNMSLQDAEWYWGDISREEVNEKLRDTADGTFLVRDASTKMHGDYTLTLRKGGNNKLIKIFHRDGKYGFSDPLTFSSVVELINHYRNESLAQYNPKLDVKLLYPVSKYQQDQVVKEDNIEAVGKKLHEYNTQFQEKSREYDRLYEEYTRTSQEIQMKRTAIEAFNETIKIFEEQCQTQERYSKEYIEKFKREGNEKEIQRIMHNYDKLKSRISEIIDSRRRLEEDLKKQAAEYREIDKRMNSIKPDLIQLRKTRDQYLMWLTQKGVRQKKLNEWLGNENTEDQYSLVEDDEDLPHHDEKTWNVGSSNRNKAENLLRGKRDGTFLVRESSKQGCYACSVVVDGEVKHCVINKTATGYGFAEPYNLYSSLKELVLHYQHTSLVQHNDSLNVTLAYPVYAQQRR
# UT-SCC-54C cells [1] = assay: Radiosensitisation of UT-SCC-54C HNSCC cells, regrowth (sulforhodamine B) assay, oxic (Table 16); assay type: cell-based, human; details: for IC50: Homo sapiens, read-out: IC50; for S50: compound in combination with 3 Gy of radiation, 50% inhibition of regrowth fraction, UT-SCC-54C; for S50 / radiosensitisation / differential growth inhibition of UT-SCC-54C cells: oxic; for radiosensitisation / differential growth inhibition of UT-SCC-54C cells: 0 or 3 Gy, regrowth assay
# HAP1 cells = assay: Radiosensitisation of HAP1 wild type cells, regrowth assay; assay type: cell-based, human; details: for IC50: Homo sapiens, HAP1, read-out: HAP1 wt IC50; for effect in unirradiated HAP1 cells: 0 Gy; for radiosensitisation / differential growth inhibition of HAP1 cells: 3 Gy cobalt-60 gamma irradiation relative to radiation-only
# human DNA-PK = human DNA-PK (Homo sapiens, UniProt P78527); assay: Inhibition of DNA-PKcs kinase activity, HotSpot assay (Reaction Biology), [γ-33P]-ATP phosphorylation of peptide substrate; assay type: biochemical; details: 10 μM ATP, 10 μg/ml DNA; mean of two replicates; Table 12; read-out: Inhibition of kinase activity (as IC50) DNA-PK (converted)
# human mTOR = human mTOR (Homo sapiens, UniProt P42345); assay: Inhibition of mTOR kinase activity, HotSpot assay, phosphorylation of 4EPB1; details: Inhibition of kinase activity (as IC50) mTOR (nM), 10 μM ATP; mean of two replicates; Table 12
# UT-SCC-54C cells [2] = assay: Radiosensitisation of UT-SCC-54C HNSCC cells, clonogenic survival, oxic and anoxic (Table 18); assay type: cell-based, human; details: for Plating efficiency drug/no drug: no radiation
compound,measurement,setting,value
"Cc1cc(NCCN(C)C)ccc1Nc1cc2c(cn1)n(C)c(=O)n2C1CCCC1 [Compound 56, 1-Cyclopentyl-6-((4-((2-(dimethylamino)ethyl)amino)-2-methylphenyl)amino)-3-methyl-1,3-dihydro-2H-imidazo[4,5-c]pyridin-2-one]",remaining activity at 1 µM,ATM,86%
"Cn1c(=O)n(C2CCCC2)c2cc(Nc3ccc4ncccc4c3)ncc21 [Compound 63, 1-Cyclopentyl-3-methyl-6-(quinolin-6-ylamino)-1,3-dihydro-2H-imidazo[4,5-c]pyridin-2-one]",IC50,ATM,0.719 µM
"Cn1c(=O)n(C2CCCC2)c2cc(Nc3cnc4ccccc4c3)ncc21 [Compound 64, 1-Cyclopentyl-3-methyl-6-(quinolin-3-ylamino)-1,3-dihydro-2H-imidazo[4,5-c]pyridin-2-one]",IC50,ATM,1.1 µM
"Cn1c(=O)n(C2CCCC2)c2cc(Nc3cccc4ncccc34)ncc21 [Compound 65, 1-Cyclopentyl-3-methyl-6-(quinolin-5-ylamino)-1,3-dihydro-2H-imidazo[4,5-c]pyridin-2-one]",remaining activity at 1 µM,ATM,93%
"Cn1c(=O)n(C2CCCC2)c2cc(Nc3cccc4cnccc34)ncc21 [Compound 66, 1-Cyclopentyl-6-(isoquinolin-5-ylamino)-3-methyl-1,3-dihydro-2H-imidazo[4,5-c]pyridin-2-one]",remaining activity at 1 µM,ATM,92%
"Cc1cc(Nc2cc3c(cn2)n(C)c(=O)n3C2CCCC2)c2ccccc2n1 [Compound 67, 1-Cyclopentyl-3-methyl-6-((2-methylquinolin-4-yl)amino)-1,3-dihydro-2H-imidazo[4,5-c]pyridin-2-one]",remaining activity at 1 µM,ATM,88%
"Cn1c(=O)n(C2CCCC2)c2cc(Nc3ccc4nccnc4c3)ncc21 [Compound 68, 1-Cyclopentyl-3-methyl-6-(quinoxalin-6-ylamino)-1,3-dihydro-2H-imidazo[4,5-c]pyridin-2-one]",IC50,ATM,0.94 µM
"Cn1c(=O)n(C2CCCC2)c2cc(Nc3ccccn3)ncc21 [Compound 73, 1-Cyclopentyl-3-methyl-6-(pyridin-2-ylamino)-1,3-dihydro-2H-imidazo[4,5-c]pyridin-2-one]",IC50,ATM,0.275 µM
"Cc1cc(Cl)ccc1Nc1cc2c(cn1)n(C)c(=O)n2C1CCOC1 (centres unmarked) [Compound 116, 6-((4-Chloro-2-methylphenyl)amino)-3-methyl-1-(tetrahydrofuran-3-yl)-1,3-dihydro-2H-imidazo[4,5-c]pyridin-2-one]",IC50,HAP1/PRKDC−/− cells,> 10 µM
same,IC50,human PI3Kα (p110α/p85α),5.46 µM
same,IC50,UT-SCC-54C cells [1],> 10 µM
same,S50,UT-SCC-54C cells [1],0.06 µM
same,IC50,HAP1 cells,> 10 µM
same,IC50,human DNA-PK,0.0049 µM
"COc1cc(C)c(Nc2cc3c(cn2)n(C)c(=O)n3C2CCOCC2)cn1 [Compound 126, 6-((6-Methoxy-4-methylpyridin-3-yl)amino)-3-methyl-1-(tetrahydro-2H-pyran-4-yl)-1,3-dihydro-2H-imidazo[4,5-c]pyridin-2-one]",radiosensitisation / differential growth inhibition of DNA-PK null HAP1 line,HAP1/PRKDC−/− cells,did not radiosensitise
same,IC50,HAP1/PRKDC−/− cells,> 10 µM
same,IC50,human PI3Kα (p110α/p85α),4.23 µM
same,IC50,UT-SCC-54C cells [1],> 10 µM
same,S50,UT-SCC-54C cells [1],0.32 µM
same,effect in unirradiated HAP1 cells,HAP1 cells,little effect
same,radiosensitisation / differential growth inhibition of HAP1 cells,HAP1 cells,concentration-dependent radiosensitisation
same,IC50,HAP1 cells,> 10 µM
same,IC50,human DNA-PK,0.00906 µM
same,IC50,human mTOR,12600 nM
"Cc1nc2cc(C)c(Nc3cc4c(cn3)n(C)c(=O)n4C3CCOCC3)cc2o1 [Compound 132, 6-((2,5-Dimethylbenzo[d]oxazol-6-yl)amino)-3-methyl-1-(tetrahydro-2H-pyran-4-yl)-1,3-dihydro-2H-imidazo[4,5-c]pyridin-2-one]",radiosensitisation / differential growth inhibition of DNA-PK null HAP1 line,HAP1/PRKDC−/− cells,did not radiosensitise
same,IC50,human PI3Kα (p110α/p85α),5.57 µM
same,IC50,UT-SCC-54C cells [1],> 10 µM
same,S50,UT-SCC-54C cells [1],0.49 µM
same,effect in unirradiated HAP1 cells,HAP1 cells,little effect
same,radiosensitisation / differential growth inhibition of HAP1 cells,HAP1 cells,concentration-dependent radiosensitisation
same,IC50,human DNA-PK,0.0126 µM
same,IC50,human mTOR,60200 nM
"Cc1cc(O)ccc1Nc1cc2c(cn1)n(C)c(=O)n2C1CCOCC1 [Compound 135, 6-((4-Hydroxy-2-methylphenyl)amino)-3-methyl-1-(tetrahydro-2H-pyran-4-yl)-1,3-dihydro-2H-imidazo[4,5-c]pyridin-2-one]",radiosensitisation / differential growth inhibition of DNA-PK null HAP1 line,HAP1/PRKDC−/− cells,did not radiosensitise; also recorded: did not demonstrate any differential growth inhibition
same,IC50,HAP1/PRKDC−/− cells,> 10 µM
same,D1 (radiation dose for 1% surviving fraction),"UT-SCC-54C cells [2]; 0% O2, compound conc 1 μM",11.5 Gy
same,D10 (radiation dose for 10% surviving fraction),"UT-SCC-54C cells [2]; 0% O2, compound conc 1 μM",6.37 Gy
same,SER1 (sensitiser enhancement ratio at 1% surviving fraction),"UT-SCC-54C cells [2]; 0% O2, compound conc 1 μM",2.07
same,SER10 (sensitiser enhancement ratio at 10% surviving fraction),"UT-SCC-54C cells [2]; 0% O2, compound conc 1 μM",2.47
same,Plating efficiency drug/no drug,"UT-SCC-54C cells [2]; 0% O2, compound conc 1 μM",1.12
same,D1 (radiation dose for 1% surviving fraction),"UT-SCC-54C cells [2]; 20% O2, compound conc 0.33 μM",1.37 Gy
same,D10 (radiation dose for 10% surviving fraction),"UT-SCC-54C cells [2]; 20% O2, compound conc 0.33 μM",4.85 Gy
same,SER1 (sensitiser enhancement ratio at 1% surviving fraction),"UT-SCC-54C cells [2]; 20% O2, compound conc 0.33 μM",1.20
same,SER10 (sensitiser enhancement ratio at 10% surviving fraction),"UT-SCC-54C cells [2]; 20% O2, compound conc 0.33 μM",8.09
same,Plating efficiency drug/no drug,"UT-SCC-54C cells [2]; 20% O2, compound conc 0.33 μM",0.77
same,D10 (radiation dose for 10% surviving fraction),"UT-SCC-54C cells [2]; 20% O2, compound conc 1 μM",3.15 Gy and 2.88 Gy
same,SER1 (sensitiser enhancement ratio at 1% surviving fraction),"UT-SCC-54C cells [2]; 20% O2, compound conc 1 μM",1.5 and 1.59
same,Plating efficiency drug/no drug,"UT-SCC-54C cells [2]; 20% O2, compound conc 1 μM",0.59 and 0.89
same,D1 (radiation dose for 1% surviving fraction),"UT-SCC-54C cells [2]; 20% O2, compound conc 3 μM",2.91 Gy
same,D10 (radiation dose for 10% surviving fraction),"UT-SCC-54C cells [2]; 20% O2, compound conc 3 μM",2.28 Gy
same,SER1 (sensitiser enhancement ratio at 1% surviving fraction),"UT-SCC-54C cells [2]; 20% O2, compound conc 3 μM",1.92
same,SER10 (sensitiser enhancement ratio at 10% surviving fraction),"UT-SCC-54C cells [2]; 20% O2, compound conc 3 μM",5.06
same,Plating efficiency drug/no drug,"UT-SCC-54C cells [2]; 20% O2, compound conc 3 μM",0.63
same,"radiosensitisation, clonogenic survival endpoint","UT-SCC-54C cells [2]; UT-SCC-54C, FIG. 8 and Table 18",concentration-dependent increases in radiosensitisation
same,IC50,human PI3Kα (p110α/p85α),3.22 µM and 5.24 µM
same,IC50,UT-SCC-54C cells [1],> 10 µM
same,S50,UT-SCC-54C cells [1],0.93 µM
same,effect in unirradiated HAP1 cells,HAP1 cells,little effect
same,IC50,HAP1 cells,> 10 µM
same,IC50,human DNA-PK,0.0057 µM and 0.0171 µM
"COc1ccc(N(C(=O)OCc2ncc([N+](=O)[O-])n2C)c2cc3c(cn2)n(C)c(=O)n3C2CCOCC2)c(C)c1 [Compound 251, (1-Methyl-5-nitro-1H-imidazol-2-yl)methyl (4-methoxy-2-methylphenyl)(3-methyl-2-oxo-1-(tetrahydro-2H-pyran-4-yl)-2,3-dihydro-1H-imidazo[4,5-c]pyridin-6-yl)carbamate]",D1 (radiation dose for 1% surviving fraction),"UT-SCC-54C cells [2]; 0% O2, compound conc 1 μM",19.50 Gy
same,D10 (radiation dose for 10% surviving fraction),"UT-SCC-54C cells [2]; 0% O2, compound conc 1 μM",13.17 Gy
same,SER1 (sensitiser enhancement ratio at 1% surviving fraction),"UT-SCC-54C cells [2]; 0% O2, compound conc 1 μM",1.10
same,SER10 (sensitiser enhancement ratio at 10% surviving fraction),"UT-SCC-54C cells [2]; 0% O2, compound conc 1 μM",1.06
same,Plating efficiency drug/no drug,"UT-SCC-54C cells [2]; 0% O2, compound conc 1 μM",1.03
same,sensitisation of UT-SCC-54C cells selectively under anoxia,"UT-SCC-54C cells [2]; oxic vs anoxic, clonogenic survival, FIGS. 9 and 10",provide sensitisation of UT-SCC-54C cells selectively under anoxia
same,IC50,human PI3Kα (p110α/p85α),> 100 µM
same,IC50,UT-SCC-54C cells [1],> 10 µM
same,S50,UT-SCC-54C cells [1],>10 µM
same,radiosensitisation / differential growth inhibition of UT-SCC-54C cells,UT-SCC-54C cells [1],did not display any differential growth inhibition
same,IC50,human DNA-PK,1.26 µM
same,IC50,human mTOR,> 100000 nM
"Cc1cc(Cl)ccc1N(C(=O)OCc1cnc([N+](=O)[O-])n1C)c1cc2c(cn1)n(C)c(=O)n2C1CCOCC1 [Compound 257, (1-Methyl-2-nitro-1H-imidazol-5-yl)methyl (4-chloro-2-methylphenyl)(3-methyl-2-oxo-1-(tetrahydro-2H-pyran-4-yl)-2,3-dihydro-1H-imidazo[4,5-c]pyridin-6-yl)carbamate]",IC50,human PI3Kα (p110α/p85α),> 100 µM
same,IC50,UT-SCC-54C cells [1],> 10 µM
same,S50,UT-SCC-54C cells [1],>10 µM
same,radiosensitisation / differential growth inhibition of UT-SCC-54C cells,UT-SCC-54C cells [1],did not display any differential growth inhibition
same,IC50,human DNA-PK,0.203 µM
same,IC50,human mTOR,> 100000 nM
"COc1ccc(N(C(=O)OCc2cnc([N+](=O)[O-])n2C)c2cc3c(cn2)n(C)c(=O)n3C2CCC(OC)CC2)c(C)c1 (centres unmarked) [Compound 258, (1-Methyl-2-nitro-1H-imidazol-5-yl)methyl (4-methoxy-2-methylphenyl)(1-(4-methoxycyclohexyl)-3-methyl-2-oxo-2,3-dihydro-1H-imidazo[4,5-c]pyridin-6-yl)carbamate]",IC50,human PI3Kα (p110α/p85α),39.2 µM
same,IC50,UT-SCC-54C cells [1],> 10 µM
same,S50,UT-SCC-54C cells [1],>10 µM
same,radiosensitisation / differential growth inhibition of UT-SCC-54C cells,UT-SCC-54C cells [1],did not display any differential growth inhibition
same,IC50,human DNA-PK,0.754 µM
same,IC50,human mTOR,> 100000 nM
